# Laboratory results: the supplement of paper PMC10307832
# What was measured:
# Assay in all cases: relative viability (nuclei count vs DMSO), 5 days (fraction); higher = more cells survive
# [1] = compound: C1CC(C1)(C(=O)O)C(=O)O.[NH2-].[NH2-].[Pt+2] [Carboplatin] + COc1cc2c(Oc3ccc(NC(=O)C4(C(=O)Nc5ccc(F)cc5)CC4)cc3F)ccnc2cc1OCCCN1CCOCC1 [Foretinib] (partner 0.25 µM)
# Procedure, shortened: (§1)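 Relative viability divides the nuclei count in treated wells by that in vehicle wells. Lung cancer cell lines were seeded in 1536-well plates, dosed by pin tool the next day, and fixed and stained after 5 days in one step with final 0.05% Triton X-100, 1% formaldehyde and 1 ug/ml Hoechst. Dosing was a single drug or a fixed anchor-drug dose plus five library-drug doses (not always all listed) in √10 steps, and values are medians of duplicate plates imaged at 4×.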
# [2] = compound: NS(=O)(=O)OC[C@@H]1C[C@@H](n2ccc3c(N[C@H]4CCc5ccccc54)ncnc32)C[C@@H]1O [MLN4924] + C[C@]1(O)C[C@@H](c2nc(-c3ccc4ccc(-c5ccccc5)nc4c3)c3c(N)nccn32)C1 [Linsitinib] (partner 1 µM)
# Procedure, shortened: as §1
# [3] = compound: NS(=O)(=O)OC[C@@H]1C[C@@H](n2ccc3c(N[C@H]4CCc5ccccc54)ncnc32)C[C@@H]1O [MLN4924] + Cc1cc(Nc2cc(N3CCN(C)CC3)nc(Sc3ccc(NC(=O)C4CC4)cc3)n2)n[nH]1 [Tozasertib] (partner 0.1 µM)
# Procedure, shortened: as §1
# [4] = compound: C1CC(C1)(C(=O)O)C(=O)O.[NH2-].[NH2-].[Pt+2] [Carboplatin] + C[C@]1(O)C[C@@H](c2nc(-c3ccc4ccc(-c5ccccc5)nc4c3)c3c(N)nccn32)C1 [Linsitinib] (partner 1 µM)
# Procedure, shortened: as §1
Cell Line,relative viability ([1]; first compound 0.08 µM),relative viability ([1]; first compound 0.253 µM),relative viability ([1]; first compound 0.8 µM),relative viability ([1]; first compound 2.53 µM),relative viability ([1]; first compound 8 µM),relative viability ([2]; first compound 0.04 µM),relative viability ([2]; first compound 0.1265 µM),relative viability ([2]; first compound 0.4 µM),relative viability ([2]; first compound 1.265 µM),relative viability ([2]; first compound 4 µM),relative viability ([3]; first compound 0.04 µM),relative viability ([3]; first compound 0.1265 µM),relative viability ([3]; first compound 0.4 µM),relative viability ([3]; first compound 1.265 µM),relative viability ([3]; first compound 4 µM),relative viability ([4]; first compound 0.08 µM),relative viability ([4]; first compound 0.253 µM),relative viability ([4]; first compound 0.8 µM),relative viability ([4]; first compound 2.53 µM),relative viability ([4]; first compound 8 µM)
NCI-H2009,1.25,1.18,1.12,1,0.767,0.816,0.36,0.247,0.143,0.0806,0.724,0.433,0.257,0.126,0.0886,1.21,1.14,1.09,1.09,0.807
NCI-H2023,0.859,0.926,0.897,0.695,0.282,0.661,0.36,0.112,0.0836,0.0754,0.35,0.31,0.171,0.0719,0.0659,0.745,0.644,0.73,0.576,0.205
NCI-H2085,1.05,0.933,1.1,0.899,0.691,0.868,0.839,0.577,0.313,0.235,0.855,0.894,0.827,0.78,0.48,0.943,0.967,0.845,0.858,0.764
NCI-H2087,1.18,1.14,1.15,0.957,0.757,0.775,0.776,0.311,0.172,0.187,0.189,0.257,0.244,0.0576,0.0697,1.09,0.857,0.782,0.871,0.585
NCI-H2126,1.31,1.14,1.04,1.25,1.04,0.747,0.69,0.576,0.327,0.391,0.821,0.813,0.514,0.339,0.25,0.724,0.741,0.713,0.687,0.667
NCI-H2228,0.907,0.831,0.626,0.845,0.532,–,0.419,0.355,0.163,0.18,0.259,0.195,0.122,0.144,0.123,0.601,1.08,0.719,0.653,0.641
NCI-H2347,1.51,1.01,1.14,1.23,0.788,0.908,0.731,0.57,0.424,0.41,0.647,0.546,0.386,0.283,0.241,1.05,1.04,0.967,0.893,0.841
NCI-H2405,1.15,1.09,0.983,0.958,0.952,1.09,1.12,0.686,0.246,0.245,0.802,0.644,0.484,0.231,0.266,0.957,0.871,0.882,0.833,0.842
NCI-H3122,0.944,0.986,0.926,0.91,0.923,0.958,0.429,0.291,0.172,0.115,0.347,0.226,0.113,0.0963,0.103,0.947,1.01,0.991,1.08,0.973
PC-3 [JPC-3],1.08,1.03,1,1.05,0.933,0.975,0.923,0.679,0.383,0.386,0.903,0.785,0.652,0.366,0.275,0.953,0.942,0.888,0.919,0.931
PC-14,0.945,0.885,0.942,0.905,0.694,0.975,0.79,0.366,0.143,0.144,0.592,0.569,0.605,0.177,0.0608,0.979,0.931,0.939,0.921,0.55
RERF-LC-KJ,0.933,0.874,0.956,0.772,0.713,0.64,0.463,0.198,0.188,0.234,0.471,0.366,0.193,0.202,0.201,0.913,0.895,0.97,0.807,0.726
SK-LU-1,0.867,0.878,0.815,0.749,0.543,0.747,0.443,0.19,0.181,0.216,0.356,0.295,0.171,0.0898,0.111,1.23,1.02,1.11,1.06,0.624
SK-MES-1,1.24,0.95,0.906,1.06,0.818,0.976,0.825,0.35,0.215,0.207,0.773,0.682,0.33,0.157,0.189,1.11,1.05,1.04,1.01,0.936
SW 1573,0.883,1.03,1.01,0.901,0.799,0.928,0.766,0.389,0.0982,0.0789,0.235,0.207,0.0978,0.0941,0.0688,0.757,0.621,0.642,0.738,0.557
